Measurements from US5240933A, “14-hydroxy-N-(2-methoxyethyl)-7,8-dihydromorphine and -norisomorphine, processes for the preparation thereof and the use thereof as pharmaceutical compositions” (Boehringer Ingelheim GmbH, priority 1991, dated 1993).
pKi: −log10 of the molar value.

Key:
[1] = phenylquinone writhing test (analgesic effect); type: in vivo
Description: (§1) In this test, compound 1a according to the invention has a mean effective dose (MED) of 2.5 mg/kg p.o. (64% effect) and compound 1b according to the invention has an MED of 10 mg/kg p.o. (71% effect). […] This small sodium shift indicates the […] nature of the compounds according to the invention.

opiate receptor [2] = test: opiate receptor binding test with [^3 H]-naloxon as radioligand
Description: as §1

opiate receptor [3] = target: opiate receptor (Homo sapiens, UniProt P35372); test: opiate receptor binding test with [^3 H]-dihydromorphine as radioligand
Description: as §1

[4] = with the addition of 0.1M sodium chloride

Chain of opiate receptor (Homo sapiens, UniProt P35372) (P35372 whole entry): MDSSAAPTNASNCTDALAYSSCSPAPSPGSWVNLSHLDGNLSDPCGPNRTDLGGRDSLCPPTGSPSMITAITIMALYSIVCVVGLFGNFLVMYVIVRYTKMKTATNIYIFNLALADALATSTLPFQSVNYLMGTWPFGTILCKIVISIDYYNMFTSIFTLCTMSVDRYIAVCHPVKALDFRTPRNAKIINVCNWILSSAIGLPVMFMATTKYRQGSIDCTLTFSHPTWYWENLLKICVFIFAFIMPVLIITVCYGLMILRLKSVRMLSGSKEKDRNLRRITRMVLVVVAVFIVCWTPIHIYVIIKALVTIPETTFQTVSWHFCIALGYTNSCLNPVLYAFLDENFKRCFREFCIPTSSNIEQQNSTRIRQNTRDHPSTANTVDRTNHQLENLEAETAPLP

Row | Structure (SMILES) | effect ([1]; dose of 25 mg/kg p.o., comparison compound) | effect ([1]; at MED of 10 mg/kg p.o.) | pKi (opiate receptor [2]; [4]) | pKi (opiate receptor [2]; without sodium chloride) | pKi (opiate receptor [3]) | effect ([1]; at MED of 2.5 mg/kg p.o.)
1 | CC(C)Cc1ccc(C(C)C(=O)O)cc1 (stereo not drawn) [Ibuprofen, reference compound] | 65% |  |  |  |  | 
2 | COCCN1CC[C@]23c4c5ccc(O)c4O[C@H]2[C@H](O)CC[C@@]3(O)[C@H]1C5 [compound 1b, 14-hydroxy-N-(2-methoxyethyl)-7,8-dihydronorisomorphine] |  | 71% | 8.92 | 8.97 | 8.75 | 
3 | COCCN1CC[C@]23c4c5ccc(O)c4O[C@H]2[C@@H](O)CC[C@@]3(O)[C@H]1C5 [compound 1a, 14-hydroxy-N-(2-methoxyethyl)-7,8-dihydronormorphine] |  |  | 8.62 | 8.67 | 9.04 | 64%
